Reference: paper PMC7265341, “Quantifying CDK inhibitor selectivity in live cells” (Nature Communications, 2020)
Read-outs that look alike come from different tables or passages of the source.

Legend:
CDK11A/Cyclin L2 = biological target: T1, CDK11A/Cyclin L2 (Homo sapiens, UniProt Q9UQ88); assay: NanoBRET live-cell target engagement, CDK11A-NanoLuc/Cyclin L2 in HEK-293; type: binding; conditions: CDK11a/L2, 10µM
T1 sequence (Q9UQ88 1-783): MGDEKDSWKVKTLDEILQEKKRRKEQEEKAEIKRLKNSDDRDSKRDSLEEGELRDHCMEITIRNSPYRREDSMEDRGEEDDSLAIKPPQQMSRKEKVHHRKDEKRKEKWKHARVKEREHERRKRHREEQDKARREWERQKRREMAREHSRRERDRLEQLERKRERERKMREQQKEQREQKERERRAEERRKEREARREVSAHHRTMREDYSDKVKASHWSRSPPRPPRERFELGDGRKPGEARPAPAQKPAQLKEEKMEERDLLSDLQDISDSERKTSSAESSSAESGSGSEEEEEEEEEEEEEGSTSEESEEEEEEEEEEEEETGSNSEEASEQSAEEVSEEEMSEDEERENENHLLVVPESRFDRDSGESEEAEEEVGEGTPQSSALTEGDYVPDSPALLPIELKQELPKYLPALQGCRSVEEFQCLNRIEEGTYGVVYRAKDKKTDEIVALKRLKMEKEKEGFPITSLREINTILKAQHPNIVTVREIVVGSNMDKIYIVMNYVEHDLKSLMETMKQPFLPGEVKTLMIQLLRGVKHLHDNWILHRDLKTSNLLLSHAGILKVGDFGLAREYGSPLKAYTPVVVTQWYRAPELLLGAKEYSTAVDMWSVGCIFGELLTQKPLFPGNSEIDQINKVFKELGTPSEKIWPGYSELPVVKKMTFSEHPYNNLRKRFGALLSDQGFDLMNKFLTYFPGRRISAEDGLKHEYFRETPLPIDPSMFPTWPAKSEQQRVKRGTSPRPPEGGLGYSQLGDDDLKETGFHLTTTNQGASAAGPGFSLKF

CDK3/Cyclin E1 = CDK3/Cyclin E1 (Homo sapiens, UniProt Q00526); assay: NanoBRET live-cell target engagement, CDK3-NanoLuc/Cyclin E1 in HEK-293; type: binding; conditions: CDK3/E1, 10µM
CDK9/Cyclin K = CDK9/Cyclin K (Homo sapiens, UniProt P50750); assay: NanoBRET live-cell target engagement, NanoLuc-CDK9/Cyclin K in HEK-293; type: binding; conditions: CDK9/K, 10µM
Sequence of CDK9/Cyclin K (P50750 whole entry): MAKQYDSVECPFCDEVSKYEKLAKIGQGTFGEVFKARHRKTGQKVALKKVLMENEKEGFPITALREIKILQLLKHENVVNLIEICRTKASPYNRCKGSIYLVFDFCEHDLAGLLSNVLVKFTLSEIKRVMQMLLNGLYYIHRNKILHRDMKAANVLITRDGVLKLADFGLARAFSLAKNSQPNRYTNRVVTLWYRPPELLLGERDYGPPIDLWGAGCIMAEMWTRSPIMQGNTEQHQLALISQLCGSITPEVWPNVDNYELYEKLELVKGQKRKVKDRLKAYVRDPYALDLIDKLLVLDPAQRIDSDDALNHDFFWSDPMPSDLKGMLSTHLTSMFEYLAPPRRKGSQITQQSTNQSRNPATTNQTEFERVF
Sequence of CDK9/Cyclin K (O75909 whole entry partner): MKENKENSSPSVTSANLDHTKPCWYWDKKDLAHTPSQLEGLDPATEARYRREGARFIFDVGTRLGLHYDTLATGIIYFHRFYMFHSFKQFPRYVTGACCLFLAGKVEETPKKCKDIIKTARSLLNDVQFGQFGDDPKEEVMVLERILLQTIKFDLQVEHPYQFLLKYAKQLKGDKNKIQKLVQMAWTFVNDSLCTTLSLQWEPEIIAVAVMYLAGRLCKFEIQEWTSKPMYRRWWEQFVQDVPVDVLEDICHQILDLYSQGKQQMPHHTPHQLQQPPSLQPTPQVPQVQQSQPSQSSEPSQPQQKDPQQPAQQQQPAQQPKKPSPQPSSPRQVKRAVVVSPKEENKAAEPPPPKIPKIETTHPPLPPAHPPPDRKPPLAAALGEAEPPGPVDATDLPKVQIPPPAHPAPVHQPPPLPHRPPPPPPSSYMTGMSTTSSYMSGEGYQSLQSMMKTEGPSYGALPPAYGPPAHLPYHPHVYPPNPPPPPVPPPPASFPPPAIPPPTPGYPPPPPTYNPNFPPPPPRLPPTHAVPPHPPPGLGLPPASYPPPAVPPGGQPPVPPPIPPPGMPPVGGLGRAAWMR

CDK16/Cyclin Y = CDK16/Cyclin Y (Homo sapiens, UniProt Q00536); assay: NanoBRET live-cell target engagement, CDK16-NanoLuc/Cyclin Y in HEK-293; type: binding; conditions: CDK16/Y, 10µM
CDK8/Cyclin C = CDK8/Cyclin C (Homo sapiens, UniProt P49336); assay: NanoBRET live-cell target engagement, NanoLuc-CDK8/Cyclin C in HEK-293; type: binding; conditions: CDK8/C, 10µM
CDK10/Cyclin L2 = CDK10/Cyclin L2 (Homo sapiens, UniProt Q15131); assay: NanoBRET live-cell target engagement, CDK10-NanoLuc/Cyclin L2 in HEK-293; conditions: 10µM
Sequence of CDK10/Cyclin L2 (Q15131 whole entry): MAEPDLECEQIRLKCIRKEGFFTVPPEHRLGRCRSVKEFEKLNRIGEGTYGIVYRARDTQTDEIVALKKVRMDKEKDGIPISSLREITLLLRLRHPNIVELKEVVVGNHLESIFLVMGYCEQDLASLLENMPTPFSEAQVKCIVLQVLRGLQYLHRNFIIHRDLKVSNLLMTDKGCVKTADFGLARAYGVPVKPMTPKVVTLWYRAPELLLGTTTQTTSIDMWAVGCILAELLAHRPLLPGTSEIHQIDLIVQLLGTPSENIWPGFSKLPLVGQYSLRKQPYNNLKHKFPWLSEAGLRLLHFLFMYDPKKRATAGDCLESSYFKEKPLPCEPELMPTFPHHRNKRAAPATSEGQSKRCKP

CDK4/Cyclin D1 = CDK4/Cyclin D1 (Homo sapiens, UniProt P11802); assay: NanoBRET live-cell target engagement, NanoLuc-CDK4/Cyclin D1 in HEK-293; type: binding; conditions: CDK4/D1, 10µM
CDK15/Cyclin Y = CDK15/Cyclin Y (Homo sapiens, UniProt Q96Q40); assay: NanoBRET live-cell target engagement, NanoLuc-CDK15/Cyclin Y in HEK-293; type: binding; conditions: CDK15/Y, 10µM
CDK13/Cyclin K = CDK13/Cyclin K (Homo sapiens, UniProt Q14004); assay: NanoBRET live-cell target engagement, CDK13-NanoLuc/Cyclin K in HEK-293; type: binding; conditions: CDK13/K, 10µM
Sequence of CDK13/Cyclin K (O75909 whole entry): as the sequence (O75909 whole entry partner) above
Sequence of CDK13/Cyclin K (Q14004 other isoform, or with tags, fused parts or gaps): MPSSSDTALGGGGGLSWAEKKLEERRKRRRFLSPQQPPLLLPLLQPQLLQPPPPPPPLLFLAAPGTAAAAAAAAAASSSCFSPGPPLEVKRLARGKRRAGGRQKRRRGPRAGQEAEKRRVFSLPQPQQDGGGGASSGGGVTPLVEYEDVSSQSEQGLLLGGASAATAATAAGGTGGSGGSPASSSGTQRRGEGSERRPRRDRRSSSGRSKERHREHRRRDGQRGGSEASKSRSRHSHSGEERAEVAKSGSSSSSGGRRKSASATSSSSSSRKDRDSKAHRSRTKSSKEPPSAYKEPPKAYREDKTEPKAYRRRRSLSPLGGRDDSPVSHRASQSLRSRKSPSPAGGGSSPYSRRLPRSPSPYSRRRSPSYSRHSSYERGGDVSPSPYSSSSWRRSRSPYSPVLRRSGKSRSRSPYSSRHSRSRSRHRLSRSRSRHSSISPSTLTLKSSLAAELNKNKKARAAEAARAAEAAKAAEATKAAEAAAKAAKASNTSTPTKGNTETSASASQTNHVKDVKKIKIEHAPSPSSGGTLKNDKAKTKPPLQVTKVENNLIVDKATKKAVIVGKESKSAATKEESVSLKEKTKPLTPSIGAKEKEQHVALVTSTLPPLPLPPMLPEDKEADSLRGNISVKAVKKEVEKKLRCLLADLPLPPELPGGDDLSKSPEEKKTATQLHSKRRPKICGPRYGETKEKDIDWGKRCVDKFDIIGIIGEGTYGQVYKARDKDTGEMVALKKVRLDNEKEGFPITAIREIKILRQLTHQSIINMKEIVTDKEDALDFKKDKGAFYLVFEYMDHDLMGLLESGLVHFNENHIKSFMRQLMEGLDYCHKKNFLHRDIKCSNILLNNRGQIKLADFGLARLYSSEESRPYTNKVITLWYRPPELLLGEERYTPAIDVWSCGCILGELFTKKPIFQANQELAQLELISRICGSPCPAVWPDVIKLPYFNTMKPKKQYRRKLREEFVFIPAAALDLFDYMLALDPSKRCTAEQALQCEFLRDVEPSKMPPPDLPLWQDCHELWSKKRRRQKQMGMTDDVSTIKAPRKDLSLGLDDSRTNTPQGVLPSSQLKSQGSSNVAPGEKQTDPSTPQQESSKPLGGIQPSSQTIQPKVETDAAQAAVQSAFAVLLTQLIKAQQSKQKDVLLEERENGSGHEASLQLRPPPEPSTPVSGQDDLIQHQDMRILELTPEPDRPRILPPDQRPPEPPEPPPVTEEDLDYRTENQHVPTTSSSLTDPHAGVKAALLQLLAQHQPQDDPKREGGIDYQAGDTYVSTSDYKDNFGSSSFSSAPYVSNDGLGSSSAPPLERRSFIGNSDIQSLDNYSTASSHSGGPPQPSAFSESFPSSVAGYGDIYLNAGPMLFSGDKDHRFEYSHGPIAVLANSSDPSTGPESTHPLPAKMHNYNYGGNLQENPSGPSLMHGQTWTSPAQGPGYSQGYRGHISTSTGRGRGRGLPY

CDK20/Cyclin H = CDK20/Cyclin H (Homo sapiens, UniProt Q8IZL9); assay: NanoBRET live-cell target engagement, NanoLuc-CDK20/Cyclin H in HEK-293; type: binding; conditions: CDK20/H, 10µM
CDK5/CDK5R1 = CDK5/CDK5R1 (Homo sapiens, UniProt Q00535); assay: NanoBRET live-cell target engagement, CDK5-NanoLuc/CDK5R1 in HEK-293; type: binding; conditions: CDK5/CDK5R1, 10µM
Sequence of CDK5/CDK5R1 (Q00535 whole entry): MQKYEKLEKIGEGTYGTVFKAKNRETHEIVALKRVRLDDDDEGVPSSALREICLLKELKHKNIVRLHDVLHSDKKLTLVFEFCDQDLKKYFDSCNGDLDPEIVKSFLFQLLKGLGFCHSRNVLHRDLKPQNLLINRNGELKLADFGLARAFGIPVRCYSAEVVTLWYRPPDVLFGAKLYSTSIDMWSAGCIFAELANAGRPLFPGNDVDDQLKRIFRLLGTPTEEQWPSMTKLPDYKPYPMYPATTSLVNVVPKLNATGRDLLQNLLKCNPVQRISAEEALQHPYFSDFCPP
Sequence of CDK5/CDK5R1 (Q15078 whole entry partner): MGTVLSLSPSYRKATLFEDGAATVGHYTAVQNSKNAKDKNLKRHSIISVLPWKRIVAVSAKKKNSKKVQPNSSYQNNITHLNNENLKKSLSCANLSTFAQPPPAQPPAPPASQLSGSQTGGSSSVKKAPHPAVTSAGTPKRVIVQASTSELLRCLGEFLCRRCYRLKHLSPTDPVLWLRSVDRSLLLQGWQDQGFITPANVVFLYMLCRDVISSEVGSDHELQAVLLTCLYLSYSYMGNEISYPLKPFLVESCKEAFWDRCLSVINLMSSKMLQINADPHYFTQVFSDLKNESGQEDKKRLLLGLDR

CDK18/Cyclin Y = CDK18/Cyclin Y (Homo sapiens, UniProt Q07002); assay: NanoBRET live-cell target engagement, CDK18-NanoLuc/Cyclin Y in HEK-293; type: binding
Sequence of CDK18/Cyclin Y (Q07002 whole entry): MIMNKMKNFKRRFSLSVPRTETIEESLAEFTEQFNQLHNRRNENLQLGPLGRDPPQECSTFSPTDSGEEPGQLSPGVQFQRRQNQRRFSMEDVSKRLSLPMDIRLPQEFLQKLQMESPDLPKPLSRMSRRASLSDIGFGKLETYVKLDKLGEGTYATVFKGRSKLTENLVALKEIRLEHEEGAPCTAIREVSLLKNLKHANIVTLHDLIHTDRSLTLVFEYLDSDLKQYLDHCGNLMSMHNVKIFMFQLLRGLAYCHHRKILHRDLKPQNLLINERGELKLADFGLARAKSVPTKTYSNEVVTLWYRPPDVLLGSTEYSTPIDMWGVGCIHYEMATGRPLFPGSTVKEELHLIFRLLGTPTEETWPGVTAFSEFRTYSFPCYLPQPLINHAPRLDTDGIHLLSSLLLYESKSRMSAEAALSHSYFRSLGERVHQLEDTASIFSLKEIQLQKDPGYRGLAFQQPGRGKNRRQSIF
Sequence of CDK18/Cyclin Y (Q8ND76 whole entry partner): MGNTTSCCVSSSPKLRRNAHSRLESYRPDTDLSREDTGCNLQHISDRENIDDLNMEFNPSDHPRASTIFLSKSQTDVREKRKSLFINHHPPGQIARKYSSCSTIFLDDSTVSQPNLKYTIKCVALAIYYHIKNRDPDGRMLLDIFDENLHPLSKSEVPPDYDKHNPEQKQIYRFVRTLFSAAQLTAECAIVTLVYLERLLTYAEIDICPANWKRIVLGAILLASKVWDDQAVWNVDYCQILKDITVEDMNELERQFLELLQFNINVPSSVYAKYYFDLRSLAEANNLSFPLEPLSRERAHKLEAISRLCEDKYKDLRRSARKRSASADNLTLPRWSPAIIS

CDK17/Cyclin Y = CDK17/Cyclin Y (Homo sapiens, UniProt Q00537); assay: NanoBRET live-cell target engagement, CDK17-NanoLuc/Cyclin Y in HEK-293; type: binding; conditions: CDK17/Y, 10µM
CDK12/Cyclin K = CDK12/Cyclin K (Homo sapiens, UniProt Q9NYV4); assay: NanoBRET live-cell target engagement, CDK12-NanoLuc/Cyclin K in HEK-293; type: binding; conditions: CDK12/K, 10µM
CDK19/Cyclin C = CDK19/Cyclin C (Homo sapiens, UniProt Q9BWU1); assay: NanoBRET live-cell target engagement, NanoLuc-CDK19/Cyclin C in HEK-293; conditions: 10µM
CDK6/Cyclin D1 = CDK6/Cyclin D1 (Homo sapiens, UniProt Q00534); assay: NanoBRET live-cell target engagement, NanoLuc-CDK6/Cyclin D1 in HEK-293; type: binding; conditions: CDK6/D1, 10µM
Sequence of CDK6/Cyclin D1 (Q00534 whole entry): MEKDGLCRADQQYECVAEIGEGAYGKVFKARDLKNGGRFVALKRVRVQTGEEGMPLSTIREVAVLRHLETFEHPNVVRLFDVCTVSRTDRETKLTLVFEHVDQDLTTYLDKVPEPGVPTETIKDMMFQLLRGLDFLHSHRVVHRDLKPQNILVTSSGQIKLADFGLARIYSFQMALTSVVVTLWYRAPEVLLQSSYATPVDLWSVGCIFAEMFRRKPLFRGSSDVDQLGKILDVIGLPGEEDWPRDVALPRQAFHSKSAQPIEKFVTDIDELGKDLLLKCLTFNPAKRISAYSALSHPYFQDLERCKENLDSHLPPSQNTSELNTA
Sequence of CDK6/Cyclin D1 (P24385 whole entry partner): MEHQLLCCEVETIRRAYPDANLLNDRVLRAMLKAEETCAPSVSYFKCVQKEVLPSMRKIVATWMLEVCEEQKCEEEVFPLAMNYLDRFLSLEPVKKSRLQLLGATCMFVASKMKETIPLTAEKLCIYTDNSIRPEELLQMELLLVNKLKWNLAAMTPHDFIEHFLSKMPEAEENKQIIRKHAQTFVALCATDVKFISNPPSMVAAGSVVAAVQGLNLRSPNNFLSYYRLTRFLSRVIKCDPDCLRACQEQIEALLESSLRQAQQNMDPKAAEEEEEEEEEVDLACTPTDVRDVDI

CDK11B/Cyclin L2 = CDK11B/Cyclin L2 (Homo sapiens, UniProt P21127); assay: NanoBRET live-cell target engagement, CDK11B-NanoLuc/Cyclin L2 in HEK-293; type: binding; conditions: CDK11b/L2, 10µM
[1] = average of replicates, read-out: Inhibition at 10µM (%) Average
[2] = read-out: Inhibition at 10µM (%) Replicate 1
[3] = read-out: Inhibition at 10µM (%) Replicate 2

## CCN1CCN(Cc2ccc(Nc3ncc(F)c(-c4cc(F)c5nc(C)n(C(C)C)c5c4)n3)nc2)CC1 [Abemaciclib]
CDK11A/Cyclin L2; [1]
  inhibition at 10 µM: 21.8%
CDK11A/Cyclin L2; [2]
  inhibition at 10 µM: 19.9%
CDK11A/Cyclin L2; [3]
  inhibition at 10 µM: 23.7%
CDK3/Cyclin E1; [1]
  inhibition at 10 µM: 62.2%
CDK3/Cyclin E1; [2]
  inhibition at 10 µM: 62.2%
CDK3/Cyclin E1; [3]
  inhibition at 10 µM: 62.3%
CDK9/Cyclin K; [1]
  inhibition at 10 µM: 84.3%
CDK9/Cyclin K; [2]
  inhibition at 10 µM: 79.2%
CDK9/Cyclin K; [3]
  inhibition at 10 µM: 89.3%
CDK16/Cyclin Y; [2]
  inhibition at 10 µM: 86.3%
CDK16/Cyclin Y; [3]
  inhibition at 10 µM: 85.8%
CDK8/Cyclin C; [1]
  inhibition at 10 µM: 35.7%
CDK8/Cyclin C; [2]
  inhibition at 10 µM: 27.2%
CDK8/Cyclin C; [3]
  inhibition at 10 µM: 44.2%
CDK10/Cyclin L2; read-out: Inhibition at 10µM (%) Average, CDK10/L2, average of replicates
  inhibition at 10 µM: 20.9%
CDK10/Cyclin L2; read-out: Inhibition at 10µM (%) Replicate 1, CDK10/L2
  inhibition at 10 µM: 21.5%
CDK10/Cyclin L2; read-out: Inhibition at 10µM (%) Replicate 2, CDK10/L2
  inhibition at 10 µM: 20.2%
CDK4/Cyclin D1; [1]
  inhibition at 10 µM: 99.6%
CDK4/Cyclin D1; [2]
  inhibition at 10 µM: 100%
CDK4/Cyclin D1; [3]
  inhibition at 10 µM: 99%
CDK15/Cyclin Y; [1]
  inhibition at 10 µM: 57.4%
CDK15/Cyclin Y; [2]
  inhibition at 10 µM: 57.3%
CDK15/Cyclin Y; [3]
  inhibition at 10 µM: 57.5%
CDK13/Cyclin K; [1]
  inhibition at 10 µM: 7.8%
CDK13/Cyclin K; [2]
  inhibition at 10 µM: 5.2%
CDK13/Cyclin K; [3]
  inhibition at 10 µM: 10.4%
CDK20/Cyclin H; [2]
  inhibition at 10 µM: 8.8%
CDK20/Cyclin H; [3]
  inhibition at 10 µM: 28.5%
CDK5/CDK5R1; [1]
  inhibition at 10 µM: 40.9%
CDK5/CDK5R1; [2]
  inhibition at 10 µM: 38%
CDK5/CDK5R1; [3]
  inhibition at 10 µM: 43.8%
CDK18/Cyclin Y; CDK18/Y, average of replicates, read-out: Inhibition at 10µM (%) Average
  inhibition at 10 µM: 74.8%
CDK18/Cyclin Y; CDK18/Y, read-out: Inhibition at 10µM (%) Replicate 1
  inhibition at 10 µM: 73.2%
CDK18/Cyclin Y; CDK18/Y, read-out: Inhibition at 10µM (%) Replicate 2
  inhibition at 10 µM: 76.3%
CDK18/Cyclin Y; CDK18/Y, read-out: IC50 (nM) Replicate 1
  IC50: 304 nM
CDK18/Cyclin Y; IC50 (nM) Average*, CDK18/Y, n=3 average ± SEM, n=2 average to 2 significant figures
  IC50: 380 ± 60 nM
CDK18/Cyclin Y; IC50 (nM) Replicate 2, CDK18/Y
  IC50: 350 nM
CDK18/Cyclin Y; IC50 (nM) Replicate 3, CDK18/Y
  IC50: 496 nM
CDK17/Cyclin Y; [1]
  inhibition at 10 µM: 83%
CDK17/Cyclin Y; [2]
  inhibition at 10 µM: 83%
CDK17/Cyclin Y; [3]
  inhibition at 10 µM: 82.9%
CDK12/Cyclin K; [1]
  inhibition at 10 µM: 11.6%
CDK12/Cyclin K; [2]
  inhibition at 10 µM: 10.3%
CDK12/Cyclin K; [3]
  inhibition at 10 µM: 12.8%
CDK19/Cyclin C; read-out: Inhibition at 10µM (%) Average, CDK19/C, average of replicates
  inhibition at 10 µM: 40.7%
CDK19/Cyclin C; read-out: Inhibition at 10µM (%) Replicate 1, CDK19/C
  inhibition at 10 µM: 41.9%
CDK19/Cyclin C; read-out: Inhibition at 10µM (%) Replicate 2, CDK19/C
  inhibition at 10 µM: 39.5%
CDK6/Cyclin D1; [1]
  inhibition at 10 µM: 99.4%
CDK6/Cyclin D1; [2]
  inhibition at 10 µM: 99.4%
CDK6/Cyclin D1; [3]
  inhibition at 10 µM: 99.4%
CDK11B/Cyclin L2; [1]
  inhibition at 10 µM: 27.7%
CDK11B/Cyclin L2; [2]
  inhibition at 10 µM: 27.9%
CDK11B/Cyclin L2; [3]
  inhibition at 10 µM: 27.6%
